From patent US20090238852A1, “METHODS FOR CONTROLLING INTRACELLULAR CALCIUM LEVELS ASSOCIATED WITH AN ISCHEMIC EVENT” (University of Utah Research Foundation, priority 2008, published 2009)

System: platelets with HIT antibody
Experiment: Serotonin release assay (SRA) with HIT-positive serum
Settings: ODSH added with heparin to the HIT antibody
Procedure: Two techniques were employed to measure platelet activation in response to heparin or 2-O desulfated heparin in the presence of HIT-reactive serum.
The first technique was the serotonin release assay (SRA), considered the gold standard laboratory test for HIT, and performed as described by Sheridan (Sheridan D, et al. Blood 67:27-30, 1986). Washed platelets were loaded with ^14C serotonin (^14C-hydroxy-tryptamine-creatine sulfate, Amersham), and then incubated with various concentrations of test heparin or heparin analog in the presence of serum from known HIT-positive patients as a source of antibody. Activation was assessed as ^14C serotonin release from platelets during activation, with ^14C serotonin quantitated using a liquid scintillation counter. […] Activated platelets are defined as percent isotope release of ≧20%.
The initial 3 ml (milliliters) of whole blood in the first syringe was discarded. The anticoagulated blood was centrifuged (80×g (gravity), 15 min, room temperature) to obtain platelet rich plasma (PRP). […] EDTA was added to stop the reaction, and the mixture was centrifuged to pellet the platelets. ^14C-serotonin released into the supernatant was measured on a scintillation counter. Maximal release was measured following platelet lysis with 10% Triton X-100. […]

Substance: 2-O, 3-O desulfated heparin [ODSH]
- effect on heparin-induced platelet activation: prevented heparin from causing platelet activation
